# In patent US4507487A, “Chemical compounds” (Bristol-Myers Company, priority 1983, dated 1985):
# Read-outs that look alike come from different tables or passages of the source.
# Tests used:
# [1] = test system: Penicillinsensitive S. aureus; assay: MIC, two-fold serial agar dilution in Mueller-Hinton agar, group (G+)-Ia; assay type: cell-based; conditions: Staphylococcus aureus; (G+)-Ia, penicillin-sensitive S. aureus (5 strains); read-out: Geometric Mean of MIC
# Method: (§1) In the primary evaluation of the compounds of this invention, the Minimum Inhibitory Concentrations (MIC's) of the compounds were determined by the two-fold serial agar dilution method in Mueller-Hinton agar against 32 strains of test organisms in six groups.
# [2] = test system: Penicillinresistant S. aureus; assay: MIC, two-fold serial agar dilution in Mueller-Hinton agar, group (G+)-Ib; assay type: cell-based; conditions: Staphylococcus aureus, read-out: Geometric Mean of MIC
# Method: as §1
# (G+)Ib: Penicillinresistant S. aureus (5 strains)
# [3] = test system: Cephalothinsensitive E. coli, Kl. pneumoniae and Pr. mirabilis; assay: MIC, two-fold serial agar dilution in Mueller-Hinton agar, group (G-)-Ia; assay type: cell-based; conditions: (G-)-Ia, cephalothin-sensitive E. coli (2), Kl. pneumoniae (1), Pr. mirabilis (2 strains); read-out: Geometric Mean of MIC
# Method: as §1
# (G-)Ia: Cephalothinsensitive E. coli (2 strains), Kl. pneumoniae (1
# strain) and Pr. mirabilis (2 strains)
# [4] = test system: Cephalothinresistant E. coli and Kl. pneumoniae; assay: MIC, two-fold serial agar dilution in Mueller-Hinton agar, group (G-)-Ib; assay type: cell-based; conditions: read-out: Geometric Mean of MIC
# Method: as §1
# (G-)Ib: Cephalothinresistant E. coli (3 strains) and Kl. pneumoniae (3
# [5] = test system: M. morganii, Ent. cloacae and Ser. marcescens; assay: MIC, two-fold serial agar dilution in Mueller-Hinton agar, group (G-)-II; assay type: cell-based; conditions: read-out: Geometric Mean of MIC
# Method: as §1
# (G-)II: M. morganii (1 strain), Ent. cloacae (2 strains) and Ser.
# [6] = test system: Ps. aeruginosa; assay: MIC, two-fold serial agar dilution in Mueller-Hinton agar, group (G-)-III; assay type: cell-based; conditions: Pseudomonas aeruginosa, Ps. aeruginosa (6 strains), read-out: Geometric Mean of MIC
# Method: as §1
# [7] = test system: E. coli A15164; assay: MIC against specific test organism; assay type: cell-based; conditions: Escherichia coli; E. coli A15164, cephalothin-resistant strain; read-out: Minimum Inhibitory Concentration
# Method: as §1
# (§2) The test method was as described for Table 1.
# [8] = test system: E. coli Juhl; assay: MIC against specific test organism; assay type: cell-based; conditions: Escherichia coli, read-out: Minimum Inhibitory Concentration
# Method: as §1, §2
# [9] = test system: Ent. cloacae A9656; assay: MIC against specific test organism; assay type: cell-based; conditions: Enterobacter cloacae, read-out: Minimum Inhibitory Concentration
# Method: as §1, §2
# [10] = test system: K. pneumoniae A9867; assay: MIC against specific test organism; assay type: cell-based; conditions: Klebsiella pneumoniae; K. pneumoniae A9867, cephalothin-resistant strain; read-out: Minimum Inhibitory Concentration
# Method: as §1, §2
# [11] = test system: K. pneumoniae D11; assay: MIC against specific test organism; assay type: cell-based; conditions: Klebsiella pneumoniae, read-out: Minimum Inhibitory Concentration
# Method: as §1, §2
# [12] = test system: M. morganii A9553; assay: MIC against specific test organism; assay type: cell-based; conditions: Morganella morganii, read-out: Minimum Inhibitory Concentration
# Method: as §1, §2
# [13] = test system: Pr. mirabilis A9554; assay: MIC against specific test organism; assay type: cell-based; conditions: Proteus mirabilis, read-out: Minimum Inhibitory Concentration
# Method: as §1, §2
# [14] = test system: Ps. aeruginosa A15150; assay: MIC against specific test organism; assay type: cell-based; conditions: Pseudomonas aeruginosa, read-out: Minimum Inhibitory Concentration
# Method: as §1, §2
# [15] = test system: Ps. aeruginosa A20717; assay: MIC against specific test organism; assay type: cell-based; conditions: Pseudomonas aeruginosa, read-out: Minimum Inhibitory Concentration
# Method: as §1, §2
# [16] = test system: Ps. aeruginosa A9843; assay: MIC against specific test organism; assay type: cell-based; conditions: Pseudomonas aeruginosa, read-out: Minimum Inhibitory Concentration
# Method: as §1, §2
# [17] = test system: S. aureus BX-1633-2; assay: MIC against specific test organism; assay type: cell-based; conditions: Staphylococcus aureus, BX16332; S. aureus BX-1633-2, penicillin-resistant strain; read-out: Minimum Inhibitory Concentration
# Method: as §1, §2
# [18] = test system: S. aureus Smith; assay: MIC against specific test organism; assay type: cell-based; conditions: Staphylococcus aureus, read-out: Minimum Inhibitory Concentration
# Method: as §1, §2
# [19] = test system: Ser. marcescens A20019; assay: MIC against specific test organism; assay type: cell-based; conditions: Serratia marcescens, read-out: Minimum Inhibitory Concentration
# Method: as §1, §2
# [20] = Mouse blood levels after single intramuscular injection; assay type: in vivo, mice; conditions: for concentration at 0.5 h: 30 minutes; for concentration at 1 h: 60 minutes
# Method: The absorption of some of the preferred compounds were determined in mice following a single intramuscular injection of the test compound (dissolved in 0.1M phosphate buffer; pH 7) at a dosage of 10, 20 or 40 mg/kg. Blood samples were collected from the orbital sinuses into heparinized capillary tubes and assayed in Nutrient Agar (pH 6.6) using E. coli Ess-22-31 as the test organism. The blood levels at various time intervals, the half-life values (t1/2) and the areas under the curve (AUC) are shown in Table 3.
# [21] = (G-)-II, M. morganii (1), Ent. cloacae (2), Ser. marcescens (2 strains)
# [22] = 10 mg/kg im, read-out: Mouse Blood Level
# [23] = 20 mg/kg im, read-out: Mouse Blood Level
# [24] = 40 mg/kg im, read-out: Mouse Blood Level
# [25] = (G+)-Ib, penicillin-resistant S. aureus (5 strains)
compound,measurement,setting,value
"CSc1scc[n+]1CC1=C(C(=O)[O-])N2C(=O)C(NC(=O)/C(=N\OC3(C(=O)O)CCC3)c3csc(N)n3)[C@H]2SC1 (stereo partly shown) [Example 2, 7-[(Z)-2-(2-Aminothiazol-4-yl)-2-(1-carboxycyclobut-1-oxyimino)acetamido]-3-(2-methylthiothiazolio)methyl-3-cephem-4-carboxylate]",MIC,[1],0.92 µg/mL
same,MIC,[2],2.7 µg/mL
same,MIC,[3],0.025 µg/mL
same,MIC,[4],0.4 µg/mL
same,MIC,[5]; [21],0.2 µg/mL
same,MIC,[6],1.8 µg/mL
same,MIC,[7],0.4 µg/mL
same,MIC,[8],0.1 µg/mL
same,MIC,[9],0.05 µg/mL
same,MIC,[10],3.1 µg/mL
same,MIC,[11],0.05 µg/mL
same,MIC,[12],0.2 µg/mL
same,MIC,[13],0.025 µg/mL
same,MIC,[14],0.8 µg/mL
same,MIC,[15],6.3 µg/mL
same,MIC,[16],1.6 µg/mL
same,MIC,[17],3.1 µg/mL
same,MIC,[18],1.6 µg/mL
same,MIC,[19],0.1 µg/mL
same,AUC,[20]; 10 mg/kg im,3600 ng·h/mL
same,half-life,[20]; 10 mg/kg im,17 min
same,concentration at 10 min,[20]; [22],8400 ng/mL
same,concentration at 20 min,[20]; [22],5500 ng/mL
same,concentration at 0.5 h,[20]; [22],3700 ng/mL
same,concentration at 40 min,[20]; [22],< 1600 ng/mL
same,AUC,[20]; 20 mg/kg im,9000 ng·h/mL
same,half-life,[20]; 20 mg/kg im,11 min
same,concentration at 10 min,[20]; [23],22000 ng/mL
same,concentration at 20 min,[20]; [23],15000 ng/mL
same,concentration at 0.5 h,[20]; [23],8600 ng/mL
same,concentration at 40 min,[20]; [23],5700 ng/mL
same,concentration at 50 min,[20]; [23],2400 ng/mL
same,concentration at 1 h,[20]; [23],< 1600 ng/mL
same,AUC,[20]; 40 mg/kg im,16000 ng·h/mL
same,half-life,[20]; 40 mg/kg im,11 min
same,concentration at 10 min,[20]; [24],43000 ng/mL
same,concentration at 20 min,[20]; [24],27000 ng/mL
same,concentration at 0.5 h,[20]; [24],14000 ng/mL
same,concentration at 40 min,[20]; [24],7500 ng/mL
same,concentration at 50 min,[20]; [24],3800 ng/mL
same,concentration at 1 h,[20]; [24],2300 ng/mL
same,concentration at 1.5 h,"[20]; 40 mg/kg im, 90 minutes, read-out: Mouse Blood Level",< 1600 ng/mL
"Cc1csc[n+]1CC1=C(C(=O)[O-])N2C(=O)C(NC(=O)/C(=N\OC(C)(C)C(=O)O)c3csc(N)n3)C2SC1 (stereo not shown) [Example 7, 7-[(Z)-2-(2-Aminothiazol-4-yl)-2-(2-carboxyprop-2-oxyimino)acetamido]-3-(4-methylthiazolio)methyl-3-cephem-4-carboxylate]",MIC,[1],7.2 µg/mL
same,MIC,[2]; [25],12.5 µg/mL
same,MIC,[3],0.076 µg/mL
same,MIC,[4],1.8 µg/mL
same,MIC,[5]; [21],2.8 µg/mL
same,MIC,[6],4 µg/mL
"CC(C)(O/N=C(\C(=O)NC1C(=O)N2C(C(=O)[O-])=C(C[n+]3ccsc3SCC(=O)O)CS[C@H]12)c1csc(N)n1)C(=O)O (stereo partly shown) [Example 13, 7-[(Z)-2-(2-Aminothiazol-4-yl)-2-(2-carboxyprop-2-oxyimino)acetamido]-3-(2-carboxymethylthiothiazolio)methyl-3-cephem-4-carboxylate]",MIC,[1],25 µg/mL
same,MIC,[2]; [25],50 µg/mL
same,MIC,[3],0.26 µg/mL
same,MIC,[4],4 µg/mL
same,MIC,[5]; [21],1.6 µg/mL
same,MIC,[6],23 µg/mL
"COc1sc[n+](CC2=C(C(=O)[O-])N3C(=O)C(NC(=O)/C(=N\OC(C)(C)C(=O)O)c4csc(N)n4)C3SC2)c1C (stereo not shown) [Example 9, 7-[(Z)-2-(2-Aminothiazol-4-yl)-2-(2-carboxyprop-2-oxyimino)acetamido]-3-(5-methoxy-4-methylthiazolio)methyl-3-cephem-4-carboxylate]",MIC,[1],9.5 µg/mL
same,MIC,[2],16 µg/mL
same,MIC,[3],0.1 µg/mL
same,MIC,[4],1.6 µg/mL
same,MIC,[5]; [21],2.8 µg/mL
same,MIC,[6],6.3 µg/mL
"CCO/N=C(\C(=O)NC1C(=O)N2C(C(=O)[O-])=C(C[n+]3ccsc3SC)CS[C@H]12)c1csc(N)n1 (stereo partly shown) [Example 4, 7-[(Z)-2-(2-Aminothiazol-4-yl)-2-(ethoxyimino)acetamido]-3-(2-methylthiothiazolio)methyl-3-cephem-4-carboxylate]",MIC,[1],0.35 µg/mL
same,MIC,[2],0.61 µg/mL
same,MIC,[3],0.076 µg/mL
same,MIC,[4],0.32 µg/mL
same,MIC,[5],0.69 µg/mL
same,MIC,[6],5.6 µg/mL
same,MIC,[7],0.2 µg/mL
same,MIC,[8],0.1 µg/mL
same,MIC,[9],0.2 µg/mL
same,MIC,[10],1.6 µg/mL
same,MIC,[11],0.1 µg/mL
same,MIC,[12],0.4 µg/mL
same,MIC,[13],0.2 µg/mL
same,MIC,[14],3.1 µg/mL
same,MIC,[15],12.5 µg/mL
same,MIC,[16],12.5 µg/mL
same,MIC,[17],0.4 µg/mL
same,MIC,[18],0.4 µg/mL
same,MIC,[19],0.1 µg/mL
"CC(C)(O/N=C(\C(=O)NC1C(=O)N2C(C(=O)[O-])=C(C[n+]3ccsc3NC=O)CS[C@H]12)c1csc(N)n1)C(=O)O (stereo partly shown) [Example 14, 7-[2-(Z)-(2-Aminothiazol-4-yl)-2-(2-carboxyprop-2-yloxyimino)acetamido]-3-(2-formylaminothiazolio)methyl-3-cephem-4-carboxylate]",MIC,[1],5.5 µg/mL
same,MIC,[2]; [25],12.5 µg/mL
same,MIC,[3],0.15 µg/mL
same,MIC,[4],3.6 µg/mL
same,MIC,[5]; [21],3.2 µg/mL
same,MIC,[6],7 µg/mL
"CSc1scc(C)[n+]1CC1=C(C(=O)[O-])N2C(=O)C(NC(=O)/C(=N\OC(C)(C)C(=O)O)c3csc(N)n3)[C@H]2SC1 (stereo partly shown) [Example 16, 7-[(Z)-2-(2-Aminothiazol-4-yl)-2-(2-carboxyprop-2-oxyimino)acetamido]-3-(4-methyl-2-methylthiothiazolio)methyl-3-cephem-4-carboxylate]",MIC,[1],4.2 µg/mL
same,MIC,[2]; [25],19 µg/mL
same,MIC,[3],0.1 µg/mL
same,MIC,[4],0.79 µg/mL
same,MIC,[5]; [21],0.53 µg/mL
same,MIC,[6],2.8 µg/mL
